Assay [1] addresses T1, HsProRS (Homo sapiens, UniProt P07814).
T1 sequence (P07814 1007-1512 limits assumed): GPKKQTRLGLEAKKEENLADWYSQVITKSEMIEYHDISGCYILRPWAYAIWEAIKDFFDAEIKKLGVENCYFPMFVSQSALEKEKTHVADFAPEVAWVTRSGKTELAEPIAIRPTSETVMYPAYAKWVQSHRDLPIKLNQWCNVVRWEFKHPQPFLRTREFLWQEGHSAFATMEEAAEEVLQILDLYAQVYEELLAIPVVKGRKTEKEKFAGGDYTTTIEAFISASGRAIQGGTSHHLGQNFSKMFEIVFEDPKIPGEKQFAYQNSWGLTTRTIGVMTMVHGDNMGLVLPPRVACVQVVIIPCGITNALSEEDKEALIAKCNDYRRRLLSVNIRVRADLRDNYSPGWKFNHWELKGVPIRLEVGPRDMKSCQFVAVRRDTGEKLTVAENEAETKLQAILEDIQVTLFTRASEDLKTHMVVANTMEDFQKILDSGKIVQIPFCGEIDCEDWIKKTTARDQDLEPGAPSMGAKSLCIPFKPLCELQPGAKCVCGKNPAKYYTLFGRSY
Nature of the assay: TR-FRET ligand displacement assay with tracer MAT379, HsProRS. Type of assay: binding. Background: Time-resolved FRET reads energy transfer from a long-lived donor to a nearby acceptor.

The target in assay [2] is PfcProRS (Plasmodium falciparum, UniProt Q8I5R7). Nature of the assay: TR-FRET ligand displacement assay with tracer MAT379, PfcProRS. Type of assay: binding.
Assay [3] deals with P. falciparum Dd2-2D4. Nature of the assay: P. falciparum asexual blood stage growth assay, wild-type Dd2-2D4. The note with it: Plasmodium falciparum; for IC50: DD2, read-out: IC50 for Dd2-2D4.
Protocol: (§1) Asexual blood stage (ABS) P. falciparum parasites were treated with test compounds at varying concentrations for 72 h, followed by quantification of parasite growth by SYBR Green staining.
(§2) P. falciparum Asexual Blood Stage Growth Assay: This assay was performed as previously described.
The subject of assay [4] is halofuginone-induced (HFG-induced) P. falciparum. The assay can be described thus: P. falciparum asexual blood stage growth assay, halofuginone-induced parasites. The note with it: Plasmodium falciparum.
Protocol: as §1, §2
Setting [5] is: no proline, no ATP, read-out: HsProRS (KD [nM]) −.
[6] abbreviates: read-out: HsProRS (KD [nM]) +proline, 100 μM Pro.
Setting [7] is: PfcProRS (KD [nM]) +proline, 100 μM Pro.
Where [8] appears, read: no proline, no ATP, read-out: PfcProRS (KD [nM]) −.
The mark [9] stands for this setting: DD2, 72 h, read-out: Dd2 (EC50 [nM]) wt.
Where [10] appears, read: DD2, 72 h, read-out: Dd2 (EC50 [nM]) Halofuginone-induced.
Where [11] appears, read: KD for HsProRS in presence of 100 μM proline, 100 μM proline.
The mark [12] stands for this setting: absence of proline, read-out: KD for PfcProRS.
Where [13] appears, read: DD2, read-out: EC50 against Dd2-2D4 wildtype parasites.
[14] abbreviates: read-out: EC50 in halofuginone-induced parasites.
The mark [15] stands for this setting: absence of proline, read-out: KD for HsProRS.
Where [16] appears, read: read-out: PfcProRS (KD [nM]) +proline, 100 μM Pro.

Structures can show the parent of a compound that is named as a salt. Where two headings read alike, the source gives them in different places. Bounds are passed on as bounds.

This note sets out measurements from US20250228855A1, “PYRAZINAMIDE COMPOUNDS” (The General Hospital Corporation, priority 2022, published 2025).

PfcProRS, sequence (Q8I5R7 whole entry): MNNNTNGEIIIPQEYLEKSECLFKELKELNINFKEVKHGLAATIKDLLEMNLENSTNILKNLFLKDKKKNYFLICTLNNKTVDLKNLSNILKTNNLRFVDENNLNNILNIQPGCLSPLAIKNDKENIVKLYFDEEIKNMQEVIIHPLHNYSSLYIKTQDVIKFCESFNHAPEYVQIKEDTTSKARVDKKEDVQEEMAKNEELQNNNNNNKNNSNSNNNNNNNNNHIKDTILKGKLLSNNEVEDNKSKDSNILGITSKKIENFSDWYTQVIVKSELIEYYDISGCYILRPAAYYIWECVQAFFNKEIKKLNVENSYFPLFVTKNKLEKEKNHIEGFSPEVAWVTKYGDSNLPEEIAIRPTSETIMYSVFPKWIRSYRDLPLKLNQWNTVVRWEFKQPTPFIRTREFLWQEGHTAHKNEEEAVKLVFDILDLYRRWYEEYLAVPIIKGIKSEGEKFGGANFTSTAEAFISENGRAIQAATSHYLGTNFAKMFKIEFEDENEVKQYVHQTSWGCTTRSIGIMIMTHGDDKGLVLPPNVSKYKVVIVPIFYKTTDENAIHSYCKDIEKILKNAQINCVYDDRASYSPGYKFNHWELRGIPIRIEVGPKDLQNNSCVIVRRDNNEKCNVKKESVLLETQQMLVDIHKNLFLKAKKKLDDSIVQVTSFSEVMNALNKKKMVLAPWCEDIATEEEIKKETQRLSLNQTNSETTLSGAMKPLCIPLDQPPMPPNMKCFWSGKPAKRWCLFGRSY

Consider `CC(C)(C)OC(=O)NCCCCCC(=O)NCC1CCN(C(=O)Nc2nccnc2C(=O)NC2Cc3ccccc3C2)CC1` [Compound 43, tert-butyl (6-(((1-((3-((2,3-dihydro-1H-inden-2-yl)carbamoyl)pyrazin-2-yl)carbamoyl)piperidin-4-yl)methyl)amino)-6-oxohexyl)carbamate], for which the Kd is 611 nM in assay [1] (setting [5]), 2280 nM in assay [1] (setting [6]), 320 nM in assay [2] (setting [7]) and 375 nM in assay [2] (setting [8]). For the same molecule, the EC50 in assay [3] (setting [9]) was determined as 3330 nM; in assay [4] (setting [10]) it was 5090 nM.
For `NCCCCCC(=O)NCC1CCN(C(=O)Nc2nccnc2C(=O)NC2Cc3ccccc3C2)CC1` [Compound 44, 3-(4-((6-aminohexanamido)methyl)piperidine-1-carboxamido)-N-(2,3-dihydro-1H-inden-2-yl)pyrazine-2-carboxamide dihydrochloride], the Kd in assay [1] (setting [6]) was found to be 330 nM; in assay [1] (read-out: HsProRS (KD [nM]) −), 1570 nM; in assay [2] (setting [7]), 270 nM; in assay [2] (setting [8]) it was 321 nM. Besides, the EC50 in assay [3] (setting [9]) was > 10000 nM; in assay [4] (setting [10]), 8910 nM.
On to `O=C(NS(=O)(=O)N1CCN(C(=O)Nc2nccnc2C(=O)NC2Cc3ccccc3C2)CC1)OC[C@@H]1CCCN1` [MAT457, (S)-pyrrolidin-2-ylmethyl ((4-((3-((2,3-dihydro-1H-inden-2-yl)carbamoyl)pyrazin-2-yl)carbamoyl)piperazin-1-yl)sulfonyl)carbamate hydrochloride], for which the Kd in assay [1] (KD for HsProRS) worked out at 9.71 nM; in assay [1] (setting [11]) it was 16.3 nM; in assay [2] (setting [7]), 118 nM; in assay [2] (setting [12]) it was 152 nM. Further, the half-maximal effective concentration (EC50) was 968 nM in assay [3] (setting [9]), 968 nM in assay [3] (setting [13]), 6570 nM in assay [4] (setting [10]) and > 10000 nM in assay [4] (setting [14]).
Turning to `O=C(NS(=O)(=O)N1CCN(C(=O)Nc2nccnc2C(=O)NC2Cc3ccccc3C2)CC1)OC[C@H]1CCCN1` [MAT459, (R)-pyrrolidin-2-ylmethyl ((4-((3-((2,3-dihydro-1H-inden-2-yl)carbamoyl)pyrazin-2-yl)carbamoyl)piperazin-1-yl)sulfonyl)carbamate], the Kd in assay [1] (setting [11]) worked out at 245 nM; in assay [1] (setting [15]), 105 nM; in assay [2] (setting [7]) it was 552 nM; in assay [2] (setting [12]), 736 nM. Besides, the EC50 was 4620 nM in assay [3] (setting [9]), 4620 nM in assay [3] (setting [13]), 7080 nM in assay [4] (setting [10]) and > 10000 nM in assay [4] (setting [14]).
On to `O=C(CCCCCNC(=S)Nc1ccccc1)NC1CCN(C(=O)Nc2nccnc2C(=O)NC2Cc3ccccc3C2)CC1` [MAT482], for which the dissociation constant Kd in assay [1] (setting [5]) worked out at 516 nM; in assay [1] (setting [6]), 1360 nM; in assay [2] (setting [8]), 78.3 nM; in assay [2] (setting [16]) it was 61.6 nM. Also, the EC50 stood at 2720 nM in assay [3] (setting [9]) and 5540 nM in assay [4] (setting [10]).
As to `Nc1ncnc2c1ncn2[C@@H]1O[C@H](CNS(=O)(=O)NC(=O)OCCn2cnc3ccccc3c2=O)[C@@H](O)[C@H]1O` [MAT511, 2-(4-oxoquinazolin-3(4H)-yl)ethyl (N-(((2R,3S,4R,5R)-5-(6-amino-9H-purin-9-yl)-3,4-dihydroxytetrahydrofuran-2-yl)methyl)sulfamoyl)carbamate], the Kd in assay [1] was > 5090 nM; in assay [1] (setting [15]) it was > 10000 nM; in assay [1] (setting [5]), > 8720 nM; in assay [2] (setting [7]) it was 1810 nM; in assay [2] (setting [12]) it was > 10000 nM; in assay [2] (setting [8]) it was > 2860 nM. In addition, the results for the EC50 in assay [3] (setting [9]) and in assay [4] (setting [10]) were 76.5 nM and 52.2 nM, respectively. Besides, in assay [3], the IC50 amounted to 73.9 nM.
For the molecule `O=C(NS(=O)(=O)NCC1CCN(C(=O)Nc2nccnc2C(=O)NC2Cc3ccccc3C2)CC1)OCCn1cnc2ccccc2c1=O` [MAT514, 2-(4-oxoquinazolin-3(4H)-yl)ethyl (N-((1-((3-((2,3-dihydro-1H-inden-2-yl)carbamoyl)pyrazin-2-yl)carbamoyl)piperidin-4-yl)methyl)sulfamoyl)carbamate], the dissociation constant (Kd) in assay [1] was found to be 372 nM; in assay [1] (setting [15]), 277 nM; in assay [2] (setting [7]) it was 32.6 nM; in assay [2] (setting [12]) it was 35.2 nM. The EC50 in assay [3] (setting [9]) stood at 4560 nM; in assay [4] (setting [10]), 7040 nM. Also, in assay [3], the IC50 came to 4560 nM.
Regarding `O=C(CCCCCNC(=O)Nc1ccccc1)NC1CCN(C(=O)Nc2nccnc2C(=O)NC2Cc3ccccc3C2)CC1` [MAT515], the Kd is 504 nM in assay [1], 169 nM in assay [1] (setting [15]), 46.6 nM in assay [2] (setting [7]) and 70.4 nM in assay [2] (setting [12]). Moreover, the concentration for a half-maximal effect (EC50) in assay [3] (setting [9]) was found to be 381 nM; in assay [4] (setting [10]), 3300 nM.
On to `O=C(CCCCCNC(=O)Nc1ccccc1)NCC1CCN(C(=O)Nc2nccnc2C(=O)NC2Cc3ccccc3C2)CC1` [MAT516], for which the Kd was 402 nM in assay [1] (setting [5]), 159 nM in assay [1] (setting [6]), 94.1 nM in assay [2] (setting [8]) and 60.8 nM in assay [2] (setting [16]). Besides, the EC50 in assay [3] (setting [9]) turned out to be 636 nM; in assay [4] (setting [10]) it was 4760 nM.
Regarding `O=C(CCCCCNC(=S)Nc1ccccc1)NCC1CCN(C(=O)Nc2nccnc2C(=O)NC2Cc3ccccc3C2)CC1` [MAT517], the Kd in assay [1] (setting [5]) was found to be 865 nM; in assay [1] (setting [6]), 1680 nM; in assay [2] (setting [8]), 95.6 nM; in assay [2] (setting [16]), 80.2 nM. The EC50 in assay [3] (setting [9]) stood at 2680 nM; in assay [4] (setting [10]), 6840 nM.
On to `O=C(CCCCCNC(=S)NC1CCCCC1)NCC1CCN(C(=O)Nc2nccnc2C(=O)NC2Cc3ccccc3C2)CC1` [MAT518], for which the Kd is > 5090 nM in assay [1], 2760 nM in assay [1] (setting [15]), 288 nM in assay [2] (setting [7]) and 372 nM in assay [2] (setting [12]). The “selectivity for PfcProRS compared to HsProRS” value in assay [2] is listed as ~7 fold. Also, the EC50 amounted to 1820 nM in assay [3] (setting [9]) and 1500 nM in assay [4] (setting [10]).
On to `CC(C)(C)OC(=O)N1CCC[C@@H](OC(=O)NS(=O)(=O)N2CCN(C(=O)Nc3nccnc3C(=O)NC3Cc4ccccc4C3)CC2)[C@@H]1CC(O)Cn1cnc2cc(Br)c(Cl)cc2c1=O` (stereo partly drawn) [MAT582, tert-butyl (2S,3R)-2-(3-(7-bromo-6-chloro-4-oxoquinazolin-3(4H)-yl)-2-hydroxypropyl)-3-((((4-((3-((2,3-dihydro-1H-inden-2-yl)carbamoyl)pyrazin-2-yl)carbamoyl)piperazin-1-yl)sulfonyl)carbamoyl)oxy)piperidine-1-carboxylate], for which the Kd in assay [1] stood at 8.42 nM; in assay [1] (setting [5]) it was 265 nM; in assay [2] (setting [7]), 2740 nM; in assay [2] (setting [8]), 2490 nM. The EC50 was 8660 nM in assay [3] (setting [9]) and > 10000 nM in assay [4] (setting [10]).
As for `O=C(NS(=O)(=O)N1CCN(C(=O)Nc2nccnc2C(=O)NC2Cc3ccccc3C2)CC1)O[C@H]1CCCN[C@@H]1CC(O)Cn1cnc2cc(Br)c(Cl)cc2c1=O` (stereo partly drawn) [MAT583, (2R,3S)-2-(3-(7-bromo-6-chloro-4-oxoquinazolin-3(4H)-yl)-2-hydroxypropyl)piperidin-3-yl ((4-((3-((2,3-dihydro-1H-inden-2-yl)carbamoyl)pyrazin-2-yl)carbamoyl)piperazin-1-yl)sulfonyl)carbamate 2,2,2-trifluoroacetate], the dissociation constant Kd in assay [1] is 150 nM; in assay [1] (setting [5]), 687 nM; in assay [2] (setting [7]), 19 nM; in assay [2] (setting [8]) it was 187 nM. Also, the EC50 in assay [3] (setting [9]) came to 2270 nM; in assay [4] (setting [10]), 7750 nM.
As for `O=C(C[C@H]1NCCC[C@@H]1O)Cn1cnc2cc(Br)c(Cl)cc2c1=O` [halofuginone(1), halofuginone, reference compound], the Kd was 2040 nM in assay [1]; 0.225 nM in assay [1] (HsProRS (KD [nM]) +ATP, +ATP); 1160 nM in assay [1] (setting [5]); 0.503 nM in assay [2] (PfcProRS (KD [nM]) +ATP, 500 μM ATP); > 3000 nM in assay [2] (setting [7]); > 3000 nM in assay [2] (setting [8]). Further, the figures for the concentration for a half-maximal effect (EC50) in assay [3] (setting [9]) and in assay [4] (setting [10]) were 0.519 nM and 19.2 nM, respectively.

As a reminder, the Kd is the equilibrium constant for the complex coming apart. As usually defined, the EC50 is the concentration needed to bring the measured effect to its halfway point. Usually IC50 stands for the point on the concentration scale where inhibition reaches its midpoint.
